Assays:
Format in all cases: in vivo
[1] = system: barnyardgrass (Echinochloa crus-galli); assay: Test G Post-Emergence Protocol; conditions: Echinochloa crus-galli, post-emergence, 312 h
Description: Seeds of corn (Zea mays), giant foxtail (Setaria faberi), barnyardgrass (Echinochloa crus-galli), ivy-leaved morning glory (Ipomoea hederacea), redroot pigweed (Amaranthus retroflexus) and velvetleaf (Abutilon theophrasti) were sown in standard soil in pots. After cultivation for 8 days under controlled conditions in a glasshouse (at 24/16° C., day/night; 14 hours light; 65% humidity), the plants were sprayed with an aqueous spray solution derived from the formulation of the technical active ingredient in acetone/water (50:50) solution containing 0.5% Tween 20 (polyoxyethylene sorbitan monolaurate, CAS RN 9005-64-5) to give a final dose of 15.625, 62.5 or 250 g/ha of test compound.
The test plants were then grown on under controlled conditions in a glasshouse (at 24/16° C., day/night; 14 hours light; 65% humidity) and watered twice daily. After 13 days the test was evaluated (100=total damage to plant; 0=no damage to plant). A dash (-) means no test result.

[2] = system: barnyardgrass (Echinochloa crus-galli); assay: Test C flooded paddy test; conditions: Flood; for Plant response rating, Barnyardgrass: scale 0 to 100 (0 no effect, 100 complete control), 13 to 15 d; for Plant response rating (scale of 0 to 100), Barnyardgrass: 0 is no effect, 100 is complete control
In short: (§1)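 Test compounds were dosed straight into the flood water of pots holding 2-leaf-stage plants, with water kept 3 cm above the soil. Greenhouse plants were scored visually against controls after 13 to 15 d, from 0 (no effect) to 100 (complete control).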

[3] = system: ducksalad (Heteranthera limosa); assay: Test C flooded paddy test; conditions: Flood; for Plant response rating, Ducksalad: scale 0 to 100 (0 no effect, 100 complete control), 13 to 15 d; for Plant response rating (scale of 0 to 100), Ducksalad: 0 is no effect, 100 is complete control
In short: as §1

[4] = system: sedge, umbrella (small-flower umbrella sedge, Cyperus difformis); assay: Test C flooded paddy test; conditions: Flood; for Plant response rating, Sedge, Umbrella: scale 0 to 100 (0 no effect, 100 complete control), 13 to 15 d; for Plant response rating (scale of 0 to 100), Sedge, Umbrella: 0 is no effect, 100 is complete control
In short: as §1

[5] = system: Monochoria (Monochoria vaginalis); assay: Test F flooded paddy test; set-up: key: 0 = no effect, 100 = complete control; conditions: Flood
From the text: (§2) Plant species in the flooded paddy test consisted of one stand of 9 or 10 water seeded rice seedlings (Rice, W. S. Jap, Oryza sativa cv. ‘Japonica—M202’ or Rice, W. S. Ind, ‘Indica’), and two stands of 3 or 4 transplanted rice seedlings (Oryza sativa cv. ‘Japonica—M202’), Monochoria (Monochoria vaginalis), sedge, umbrella (small-flower umbrella sedge, Cyperus difformis), hardstem bulrush (Scirpus juncoides), redstem (purple redstem, Ammannia coccinea), rice flatsedge (Cyperus iria), bearded sprangletop (Leptochloa fascicularis), barnyardgrass (Echinochloa crus-galli), waterplantain (common waterplantain, Alisma plantago-aquatica), and late watergrass (Echinochloa oryzicola) grown to the 2 to 2.5 leaf stage for testing. Potted plants were grown in a greenhouse with day/night temperature settings of 30/27° C., and supplemental balanced lighting was provided to maintain a 16-hour photoperiod. At time of treatment, test pots were flooded to 3 cm above the soil surface, treated by application of test compounds directly to the paddy water, and then maintained at that water depth for the duration of the test. Effects of treatments on rice and weeds were visually evaluated by comparison to untreated controls after 21 d. Plant response ratings, summarized in Table F, are based on a scale of 0 to 100 where 0 is no effect and 100 is complete control. A dash (-) response means no test result.

[6] = system: barnyardgrass (Echinochloa crus-galli); assay: Test F flooded paddy test; set-up: key: 0 = no effect, 100 = complete control; conditions: Flood
From the text: as §2

[7] = system: bearded sprangletop (Leptochloa fascicularis); assay: Test F flooded paddy test; set-up: key: 0 = no effect, 100 = complete control; conditions: Flood
From the text: as §2

[8] = system: late watergrass (Echinochloa oryzicola); assay: Test F flooded paddy test; set-up: key: 0 = no effect, 100 = complete control; conditions: Flood
From the text: as §2

[9] = system: rice flatsedge (Cyperus iria); assay: Test F flooded paddy test; set-up: key: 0 = no effect, 100 = complete control; conditions: Flood
From the text: as §2

[10] = system: sedge, umbrella (small-flower umbrella sedge, Cyperus difformis); assay: Test F flooded paddy test; set-up: key: 0 = no effect, 100 = complete control; conditions: Flood
From the text: as §2

[11] = system: transplanted rice seedlings (Oryza sativa cv. ‘Japonica—M202’); assay: Test F flooded paddy test; set-up: key: 0 = no effect, 100 = complete control; conditions: Flood
From the text: as §2

[12] = system: water seeded rice seedlings (Rice, W. S. Jap, Oryza sativa cv. ‘Japonica—M202’); assay: Test F flooded paddy test; set-up: key: 0 = no effect, 100 = complete control; conditions: Flood
From the text: as §2

[13] = system: redstem (purple redstem, Ammannia coccinea); assay: Test F flooded paddy test; conditions: Flood
From the text: as §2

[14] = system: waterplantain (common waterplantain, Alisma plantago-aquatica); assay: Test F flooded paddy test; conditions: Flood
From the text: as §2

## CN1C[C@H](c2ccc(Cl)cc2)[C@@H](C(=O)Nc2cccc(F)n2)C1=O [Compound 1399]
[1]; 15.625 g ai/ha, evaluated after 13 days (100=total damage to plant; 0=no damage to plant), read-out: Barnyardgrass damage rating
  pest or weed control at 15.625 g/ha: 40%
[1]; 62.5 g ai/ha, evaluated after 13 days, read-out: Barnyardgrass damage rating (100=total damage to plant; 0=no damage to plant)
  pest or weed control at 62.5 g/ha: 70%
[1]; 250 g ai/ha, evaluated after 13 days, read-out: damage to plant, Barnyardgrass (100=total damage to plant; 0=no damage to plant)
  pest or weed control at 250 g/ha: 80%

## CN1CC(c2cc(F)cc(F)c2)C(C(=O)Nc2cccc(F)c2F)C1=O (stereo not shown) [Compound 644]
[2]; 31 g ai/ha
  Plant response rating, Barnyardgrass: 40
[2]; 62 g ai/ha
  Plant response rating (scale of 0 to 100), Barnyardgrass: 60
[2]; 125 g ai/ha
  Plant response rating (scale of 0 to 100), Barnyardgrass: 75
[2]; 250 g ai/ha
  Plant response rating (scale of 0 to 100), Barnyardgrass: 90
[3]; 31 g ai/ha
  Plant response rating, Ducksalad: 55
[3]; 62 g ai/ha
  Plant response rating (scale of 0 to 100), Ducksalad: 65
[3]; 125 g ai/ha
  Plant response rating (scale of 0 to 100), Ducksalad: 100
[3]; 250 g ai/ha
  Plant response rating (scale of 0 to 100), Ducksalad: 100
[4]; 31 g ai/ha
  Plant response rating, Sedge, Umbrella: 0
[4]; 62 g ai/ha
  Plant response rating (scale of 0 to 100), Sedge, Umbrella: 0
[4]; 125 g ai/ha
  Plant response rating (scale of 0 to 100), Sedge, Umbrella: 0
[4]; 250 g ai/ha
  Plant response rating (scale of 0 to 100), Sedge, Umbrella: 0

## Cc1ccc(C2CN(C)C(=O)C2C(=O)Nc2ccccc2F)cc1F (stereo not shown) [Compound 465]
[2]; 16 g ai/ha
  Plant response rating, Barnyardgrass: 0
[2]; 31 g ai/ha
  Plant response rating (scale of 0 to 100), Barnyardgrass: 25
[2]; 62 g ai/ha
  Plant response rating (scale of 0 to 100), Barnyardgrass: 45
[2]; 125 g ai/ha
  Plant response rating (scale of 0 to 100), Barnyardgrass: 70
[3]; 16 g ai/ha
  Plant response rating, Ducksalad: 0
[3]; 31 g ai/ha
  Plant response rating (scale of 0 to 100), Ducksalad: 45
[3]; 62 g ai/ha
  Plant response rating (scale of 0 to 100), Ducksalad: 65
[3]; 125 g ai/ha
  Plant response rating (scale of 0 to 100), Ducksalad: 90
[4]; 16 g ai/ha
  Plant response rating, Sedge, Umbrella: 0
[4]; 31 g ai/ha
  Plant response rating (scale of 0 to 100), Sedge, Umbrella: 0
[4]; 62 g ai/ha
  Plant response rating (scale of 0 to 100), Sedge, Umbrella: 0
[4]; 125 g ai/ha
  Plant response rating (scale of 0 to 100), Sedge, Umbrella: 0
[5]; 32 g ai/ha
  Plant response rating: Monochoria: 50
[5]; 64 g ai/ha
  Plant response rating: Monochoria: 75
[5]; 125 g ai/ha
  Plant response rating: Monochoria: 100
[5]; 250 g ai/ha
  Plant response rating: Monochoria: 100
[6]; 32 g ai/ha
  Plant response rating: Barnyardgrass: 100
[6]; 64 g ai/ha
  Plant response rating: Barnyardgrass: 100
[6]; 125 g ai/ha
  Plant response rating: Barnyardgrass: 100
[6]; 250 g ai/ha
  Plant response rating: Barnyardgrass: 100
[7]; 32 g ai/ha
  Plant response rating: Sprangletop, Brdd.: 85
[7]; 64 g ai/ha
  Plant response rating: Sprangletop, Brdd.: 85
[7]; 125 g ai/ha
  Plant response rating: Sprangletop, Brdd.: 95
[7]; 250 g ai/ha
  Plant response rating: Sprangletop, Brdd.: 95
[8]; 32 g ai/ha
  Plant response rating: Watergrass, Late: 85
[8]; 64 g ai/ha
  Plant response rating: Watergrass, Late: 00
[8]; 125 g ai/ha
  Plant response rating: Watergrass, Late: 100
[8]; 250 g ai/ha
  Plant response rating: Watergrass, Late: 100
[9]; 32 g ai/ha
  Plant response rating: Flatsedge, Rice: 0
[9]; 64 g ai/ha
  Plant response rating: Flatsedge, Rice: 0
[9]; 125 g ai/ha
  Plant response rating: Flatsedge, Rice: 0
[9]; 250 g ai/ha
  Plant response rating: Flatsedge, Rice: 0
[10]; 32 g ai/ha
  Plant response rating: Sedge, Umbrella: 0
[10]; 64 g ai/ha
  Plant response rating: Sedge, Umbrella: 0
[10]; 125 g ai/ha
  Plant response rating: Sedge, Umbrella: 0
[10]; 250 g ai/ha
  Plant response rating: Sedge, Umbrella: 0
[11]; 32 g ai/ha
  Plant response rating: Rice, Transplanted: 0
[11]; 64 g ai/ha
  Plant response rating: Rice, Transplanted: 0
[11]; 125 g ai/ha
  Plant response rating: Rice, Transplanted: 0
[11]; 250 g ai/ha
  Plant response rating: Rice, Transplanted: 15
[12]; 32 g ai/ha
  Plant response rating: Rice, Water Seeded: 0
[12]; 64 g ai/ha
  Plant response rating: Rice, Water Seed.: 0
[12]; 125 g ai/ha
  Plant response rating: Rice, Water Seed.: 35
[12]; 250 g ai/ha
  Plant response rating: Rice, Water Seeded: 60
[13]; 32 g ai/ha
  Plant response rating: Redstem: 0
[13]; 64 g ai/ha
  Plant response rating: Redstem: 0
[13]; 125 g ai/ha
  Plant response rating: Redstem: 0
[13]; 250 g ai/ha
  Plant response rating: Redstem: 45
[14]; 32 g ai/ha
  Plant response rating: Waterplantain: 0
[14]; 64 g ai/ha
  Plant response rating: Waterplantain: 40
[14]; 125 g ai/ha
  Plant response rating: Waterplantain: 90
[14]; 250 g ai/ha
  Plant response rating: Waterplantain: 100

From patent US12077503B2, “Substituted cyclic amides and their use as herbicides” (FMC CORPORATION, priority 2015, dated 2024)
